Results published in patent publication US20140357577A1, “HIV Membrane Fusion Inhibitors” (priority 2011, published 2014).
Starred links: 1 amine or outer side, 2 acyl side, 3 side chain; linkers in the order of their positions; H or OH if unused. *: point of attachment. cholesteryl‑oxycarbonylmethyl = CC(C)CCC[C@@H](C)[C@H]1CC[C@H]2[C@@H]3CC=C4C[C@@H](OC(=O)C*)CC[C@]4(C)[C@H]3CC[C@]12C; cholesteryl‑succinyl = CC(C)CCC[C@@H](C)[C@H]1CC[C@H]2[C@@H]3CC=C4C[C@@H](OC(=O)CCC(=O)*)CC[C@]4(C)[C@H]3CC[C@]12C; Suc = O=C(CCC(=O)[*:2])[*:1]; Hexanoyl = CCCCCC(=O)*; Pentanoyl = CCCCC(=O)*

Legend:
[1] = test system: HIV wild type virus strain IIIB; test: Standard Anti-Viral-Experiment (AVE), HIV-1 replication assay in MT4-LTR-EGFP cells, wild type IIIB; type: cell-based; settings: 3 days, EGFP signal
Source text: (§1) • Standard Anti-Viral-Experiment “AVE” (wild type HIV strain IIIB+HIV strain HXB2D side directed mutants V38A and Q40H)
(§2) The HIV-1 replication assay measures virus replication (HIV wild type virus strain 111B or HXB2D, or a HIV mutant virus strain HXB2D with mutation V38A or Q40H in the gp41 gene) as an induction of enhanced green fluorescent protein (EGFP) expression. The indicator MT4-LTR-EGFP cells contain an EGFP gene under the control of the HIV-1 LTR promoter sequence. Successful HIV-1 infection results in viral Tat protein expression and subsequent induction of EGFP expression. Compounds/peptides inhibiting HIV-1 infection are expected to reduce EGFP expression as compared to the untreated HIV-infected control.
(§3) Serial 4-fold dilutions of test compounds/peptides were mixed with HIV-1 (IIIB, HXB2D, or a HXB2D mutant virus (V38A or Q40H)) and MT4-LTR-EGFP cells and incubated at 37° C. After 3 days, the wells were examined for EGFP expression using an argon laser-scanning microscope. The effective compound/peptide concentration inhibiting 50% of the virus-induced EGFP signal (EC50) was determined by linear interpolation of the EGFP signal vs. logarithm of the compound concentration; (T20, C34 and Sifuvirtide were added as reference compounds). For the V38A and Q40H mutant viruses, results were reported as a fold change in EC50, as compared with a drug-susceptible wild type strain HXB2D, which forms the backbone of the mutant virus. • Standard AVE (50% Human Serum)

HIV-IIIB + 50% HS = test: Standard AVE (50% Human Serum), HIV-1 replication assay in MT4-LTR-EGFP cells; type: cell-based; settings: fold change vs EC50 in the assay without human serum
Source text: The HIV-1 replication assay (with 50% human serum) measures virus replication as an induction of enhanced green fluorescent protein (EGFP) expression, in the presence of 50% human serum. The indicator MT4-LTR-EGFP cells contain an EGFP gene under the control of the HIV-1 LTR promoter sequence. Successful HIV-1 infection results in viral Tat protein expression and subsequent induction of EGFP expression. Compounds/peptides inhibiting HIV-1 infection are expected to reduce EGFP expression as compared to the untreated HIV-infected control. Compounds/peptides binding to human serum are expected to have a reduced activity for inhibiting the virus in the assay.
Serial 4-fold dilutions of test compounds/peptides were mixed with HIV-1 and MT4-LTR-EGFP cells and incubated at 37° C., in the presence of 50% human serum. After 3 days, the wells were examined for EGFP expression using an argon laser-scanning microscope. The effective compound/peptide concentration inhibiting 50% of the virus-induced EGFP signal (EC50) was determined by linear interpolation of the EGFP signal vs. logarithm of the compound concentration; T20, C34 and Sifuvirtide were added as reference compounds. Results were reported as a fold change in EC50, as compared with the acquired EC50 in the assay without human serum.

[2] = test system: HIV mutant virus strain HXB2D with mutation Q40H in the gp41 gene; test: Standard AVE, HXB2D site directed mutant Q40H; type: cell-based, HIV-1; settings: fold change vs wild type strain HXB2D
Source text: as §1, §2, §3

Pentanoyl-ANYLALIEALIRAAQEQQEKNEAALR-NH2 (SMILES CCCCC(=O)N[C@@H](C)C(=O)N[C@@H](CC(N)=O)C(=O)N[C@@H](Cc1ccc(O)cc1)C(=O)N[C@@H](CC(C)C)C(=O)N[C@@H](C)C(=O)N[C@@H](CC(C)C)C(=O)N[C@H](C(=O)N[C@@H](CCC(=O)O)C(=O)N[C@@H](C)C(=O)N[C@@H](CC(C)C)C(=O)N[C@H](C(=O)N[C@@H](CCCNC(=N)N)C(=O)N[C@@H](C)C(=O)N[C@@H](C)C(=O)N[C@@H](CCC(N)=O)C(=O)N[C@@H](CCC(=O)O)C(=O)N[C@@H](CCC(N)=O)C(=O)N[C@@H](CCC(N)=O)C(=O)N[C@@H](CCC(=O)O)C(=O)N[C@@H](CCCCN)C(=O)N[C@@H](CC(N)=O)C(=O)N[C@@H](CCC(=O)O)C(=O)N[C@@H](C)C(=O)N[C@@H](C)C(=O)N[C@@H](CC(C)C)C(=O)N[C@@H](CCCNC(=N)N)C(N)=O)[C@@H](C)CC)[C@@H](C)CC) [Peptide 15]
EC50 [1]: 2 nM | HIV-IIIB + 50% HS (Fold change in EC50) (HIV-IIIB + 50% HS): 2 | HIV-HXB2D Q40H mutant (fold change in EC50) [2]: 168

Pentanoyl-ENYLALIEELIRKAQEQQEKNEAALR-NH2 (SMILES CCCCC(=O)N[C@@H](CCC(=O)O)C(=O)N[C@@H](CC(N)=O)C(=O)N[C@@H](Cc1ccc(O)cc1)C(=O)N[C@@H](CC(C)C)C(=O)N[C@@H](C)C(=O)N[C@@H](CC(C)C)C(=O)N[C@H](C(=O)N[C@@H](CCC(=O)O)C(=O)N[C@@H](CCC(=O)O)C(=O)N[C@@H](CC(C)C)C(=O)N[C@H](C(=O)N[C@@H](CCCNC(=N)N)C(=O)N[C@@H](CCCCN)C(=O)N[C@@H](C)C(=O)N[C@@H](CCC(N)=O)C(=O)N[C@@H](CCC(=O)O)C(=O)N[C@@H](CCC(N)=O)C(=O)N[C@@H](CCC(N)=O)C(=O)N[C@@H](CCC(=O)O)C(=O)N[C@@H](CCCCN)C(=O)N[C@@H](CC(N)=O)C(=O)N[C@@H](CCC(=O)O)C(=O)N[C@@H](C)C(=O)N[C@@H](C)C(=O)N[C@@H](CC(C)C)C(=O)N[C@@H](CCCNC(=N)N)C(N)=O)[C@@H](C)CC)[C@@H](C)CC) [Peptide 52]
EC50 [1]: 1 nM | HIV-IIIB + 50% HS (Fold change in EC50) (HIV-IIIB + 50% HS): 2 | HIV-HXB2D Q40H mutant (fold change in EC50) [2]: 38

SUC-ECYLACIEALIRAAQEQQEKNEAALR-NH2 (Suc-ECYLACIEALIRAAQEQQEKNEAALR-NH2; cysteine pairing not given here) [Peptide 33]
EC50 [1]: 1 nM | HIV-IIIB + 50% HS (Fold change in EC50) (HIV-IIIB + 50% HS): 0.6 | HIV-HXB2D Q40H mutant (fold change in EC50) [2]: 269

Hexanoyl-ECYLACIEELIRKAQEQQEKNEAALR-NH2 (cysteine pairing not given here) [Peptide 42]
EC50 [1]: 1 nM | HIV-HXB2D Q40H mutant (fold change in EC50) [2]: 27

AC-ECYLACIEALIRAAQEQQEKNEAALR-NH2 [Peptide 45]
HIV-IIIB + 50% HS (Fold change in EC50) (HIV-IIIB + 50% HS): 1 | HIV-HXB2D Q40H mutant (fold change in EC50) [2]: 64

SWETWEREIENYTRQIYRILEESQEQQDRNERDLLE [Sifuvirtide, reference compound]
EC50 [1]: 2 nM | HIV-HXB2D Q40H mutant (fold change in EC50) [2]: 2

Ac-ANYLALIEALIRAAQEQQEKNEAALRGSGK(cholesteryl-succinyl)-NH2 (Ac-ANYLALIEALIRAAQEQQEKNEAALRGSGK(cholesteryl‑succinyl)-NH2; SMILES CC[C@H](C)[C@H](NC(=O)[C@H](CC(C)C)NC(=O)[C@H](C)NC(=O)[C@H](CCC(=O)O)NC(=O)[C@@H](NC(=O)[C@H](CC(C)C)NC(=O)[C@H](C)NC(=O)[C@H](CC(C)C)NC(=O)[C@H](Cc1ccc(O)cc1)NC(=O)[C@H](CC(N)=O)NC(=O)[C@H](C)NC(C)=O)[C@@H](C)CC)C(=O)N[C@@H](CCCNC(=N)N)C(=O)N[C@@H](C)C(=O)N[C@@H](C)C(=O)N[C@@H](CCC(N)=O)C(=O)N[C@@H](CCC(=O)O)C(=O)N[C@@H](CCC(N)=O)C(=O)N[C@@H](CCC(N)=O)C(=O)N[C@@H](CCC(=O)O)C(=O)N[C@@H](CCCCN)C(=O)N[C@@H](CC(N)=O)C(=O)N[C@@H](CCC(=O)O)C(=O)N[C@@H](C)C(=O)N[C@@H](C)C(=O)N[C@@H](CC(C)C)C(=O)N[C@@H](CCCNC(=N)N)C(=O)NCC(=O)N[C@@H](CO)C(=O)NCC(=O)N[C@@H](CCCCNC(=O)CCC(=O)O[C@H]1CC[C@@]2(C)C(=CC[C@H]3[C@@H]4CC[C@H]([C@H](C)CCCC(C)C)[C@@]4(C)CC[C@@H]32)C1)C(N)=O) [Peptide 69]
EC50 [1]: 0.3 nM | HIV-HXB2D Q40H mutant (fold change in EC50) [2]: 11

Suc-ENYLALIEELIRKAQEQQEKNEAALR-NH2 (SMILES CC[C@H](C)[C@H](NC(=O)[C@H](CC(C)C)NC(=O)[C@H](C)NC(=O)[C@H](CC(C)C)NC(=O)[C@H](Cc1ccc(O)cc1)NC(=O)[C@H](CC(N)=O)NC(=O)[C@H](CCC(=O)O)NC(=O)CCC(=O)O)C(=O)N[C@@H](CCC(=O)O)C(=O)N[C@@H](CCC(=O)O)C(=O)N[C@@H](CC(C)C)C(=O)N[C@H](C(=O)N[C@@H](CCCNC(=N)N)C(=O)N[C@@H](CCCCN)C(=O)N[C@@H](C)C(=O)N[C@@H](CCC(N)=O)C(=O)N[C@@H](CCC(=O)O)C(=O)N[C@@H](CCC(N)=O)C(=O)N[C@@H](CCC(N)=O)C(=O)N[C@@H](CCC(=O)O)C(=O)N[C@@H](CCCCN)C(=O)N[C@@H](CC(N)=O)C(=O)N[C@@H](CCC(=O)O)C(=O)N[C@@H](C)C(=O)N[C@@H](C)C(=O)N[C@@H](CC(C)C)C(=O)N[C@@H](CCCNC(=N)N)C(N)=O)[C@@H](C)CC) [Peptide 19]
EC50 [1]: 1 nM | HIV-HXB2D Q40H mutant (fold change in EC50) [2]: 151

Ac-ECYLACIEELIRKAQEQQEKNEAALR-NH2 [Peptide 37]
HIV-IIIB + 50% HS (Fold change in EC50) (HIV-IIIB + 50% HS): 0.7 | HIV-HXB2D Q40H mutant (fold change in EC50) [2]: 108

Ac-ACYAACIEALIRAAQEQQEKNEAALR-NH2 [Peptide 68]
HIV-IIIB + 50% HS (Fold change in EC50) (HIV-IIIB + 50% HS): 2 | HIV-HXB2D Q40H mutant (fold change in EC50) [2]: >67

Suc-ANYLALIEALIRAAQEQQEKNEAALRGSGC(cholesteryl-oxycarbonylmethyl)-NH2 (Suc-ANYLALIEALIRAAQEQQEKNEAALRGSGC(cholesteryl‑oxycarbonylmethyl)-NH2; SMILES CC[C@H](C)[C@H](NC(=O)[C@H](CC(C)C)NC(=O)[C@H](C)NC(=O)[C@H](CCC(=O)O)NC(=O)[C@@H](NC(=O)[C@H](CC(C)C)NC(=O)[C@H](C)NC(=O)[C@H](CC(C)C)NC(=O)[C@H](Cc1ccc(O)cc1)NC(=O)[C@H](CC(N)=O)NC(=O)[C@H](C)NC(=O)CCC(=O)O)[C@@H](C)CC)C(=O)N[C@@H](CCCNC(=N)N)C(=O)N[C@@H](C)C(=O)N[C@@H](C)C(=O)N[C@@H](CCC(N)=O)C(=O)N[C@@H](CCC(=O)O)C(=O)N[C@@H](CCC(N)=O)C(=O)N[C@@H](CCC(N)=O)C(=O)N[C@@H](CCC(=O)O)C(=O)N[C@@H](CCCCN)C(=O)N[C@@H](CC(N)=O)C(=O)N[C@@H](CCC(=O)O)C(=O)N[C@@H](C)C(=O)N[C@@H](C)C(=O)N[C@@H](CC(C)C)C(=O)N[C@@H](CCCNC(=N)N)C(=O)NCC(=O)N[C@@H](CO)C(=O)NCC(=O)N[C@@H](CSCC(=O)O[C@H]1CC[C@@]2(C)C(=CC[C@H]3[C@@H]4CC[C@H]([C@H](C)CCCC(C)C)[C@@]4(C)CC[C@@H]32)C1)C(N)=O) [Peptide 35]
EC50 [1]: 0.3 nM | HIV-HXB2D Q40H mutant (fold change in EC50) [2]: 24

Pentanoyl-ECYLACIEALIRAAQEQQEKNEAALR-NH2 (cysteine pairing not given here) [Peptide 38]
EC50 [1]: 1 nM | HIV-HXB2D Q40H mutant (fold change in EC50) [2]: 45

Pentanoyl-ECYLACIEELIRKAQEQQEKNEAALR-NH2 (cysteine pairing not given here) [Peptide 41]
EC50 [1]: 1 nM | HIV-HXB2D Q40H mutant (fold change in EC50) [2]: 42

ANYAALIEALIRKAQEQQEKNEAALR [Peptide 5]
EC50 [1]: 48 nM | HIV-IIIB + 50% HS (Fold change in EC50) (HIV-IIIB + 50% HS): 0.5

Ac-CYAACIEALIRAAQEQQEKNEAALR-NH2 [Peptide 21]
EC50 [1]: 5 nM | HIV-IIIB + 50% HS (Fold change in EC50) (HIV-IIIB + 50% HS): 3

Suc-ECYLACIEELIRKAQEQQEKNEAALR-NH2 (cysteine pairing not given here) [Peptide 90]
EC50 [1]: 1 nM | HIV-HXB2D Q40H mutant (fold change in EC50) [2]: 65

Ac-CYAACIEALIRAAQEQQEKNEAALR-NH2 [Peptide 22]
EC50 [1]: 35 nM | HIV-IIIB + 50% HS (Fold change in EC50) (HIV-IIIB + 50% HS): 2

Suc-aNYLALIEALIRAAQEQQEKNEAALr-NH2 [Peptide 12]
EC50 [1]: 10 nM | HIV-IIIB + 50% HS (Fold change in EC50) (HIV-IIIB + 50% HS): 0.4
